From ChEMBL document CHEMBL1201862, “PubChem BioAssay data set” (2004)
“And” between values parts separate entries of the source, which are not always exact repeats. Equal entries are not always repeated.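 Each compound was tested at five concentrations against cells in 96-well plates for 48 hours. Abbreviation: GI50, concentration required for 50% inhibition of growth.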 The source made the active and inactive calls. No stated cut-off is given here; in the data, active = GI50 up to about 1.1 µM and inactive = higher.

How the values were obtained:
Assay in all cases: NCI tumour cell line growth inhibition, 48 h
[1] = tested on: 786-0
[2] = tested on: RPMI-8226
[3] = tested on: OVCAR-3
[4] = tested on: CCRF-CEM
[5] = tested on: EKVX
[6] = tested on: CAKI-1
[7] = tested on: HL-60
[8] = tested on: LOX IMVI
[9] = tested on: NCI-H522
[10] = tested on: NCI-H23
[11] = tested on: OVCAR-4
[12] = tested on: HCT-116
[13] = tested on: UO-31
[14] = tested on: K562
[15] = tested on: SN12C
[16] = tested on: SK-MEL-5
[17] = tested on: UACC-257
[18] = tested on: M14
[19] = tested on: SK-MEL-28
[20] = tested on: SF-268
[21] = tested on: NCI-H460
[22] = tested on: DMS-114
[23] = tested on: HCT-15
[24] = tested on: OVCAR-8
[25] = tested on: SNB-19
[26] = tested on: UACC-62
[27] = tested on: OVCAR-5
[28] = tested on: HT-29
[29] = tested on: HOP-62
[30] = tested on: U-251
[31] = tested on: NCI-H226
[32] = tested on: SR
[33] = tested on: XF498
[34] = tested on: SF-295
[35] = tested on: ACHN
[36] = tested on: SNB-75
[37] = tested on: KM12
[38] = tested on: HCC 2998
[39] = tested on: MOLT-4
[40] = tested on: SK-OV-3
[41] = tested on: TK-10
[42] = tested on: IGROV-1
[43] = tested on: DMS-273
[44] = tested on: LXFL 529
[45] = tested on: A549
[46] = tested on: DLD-1
[47] = tested on: KM-20L2
[48] = tested on: SW-620
[49] = tested on: SK-MEL-2
[50] = tested on: RXF 393
[51] = tested on: M19-MEL
[52] = tested on: Malme-3M
[53] = tested on: COLO 205
[54] = tested on: A498
[55] = tested on: SNB-78
[56] = tested on: HOP-18

## O=C1Nc2ccc(Cl)c(I)c2C1=O
[1]
  GI50: 19.7 µM (inactive)
[2]
  GI50: > 10 µM (inactive)
[3]
  GI50: 21.1 µM (inactive)
[4]
  GI50: 15.4 µM (inactive)
[5]
  GI50: 5.62 µM (inactive)
[6]
  GI50: 21.6 µM (inactive)
[7]
  GI50: 16.1 µM (inactive)
[8]
  GI50: 18.5 µM (inactive)
[9]
  GI50: 17.2 µM (inactive)
[10]
  GI50: 18.9 µM (inactive)
[11]
  GI50: 18.1 µM (inactive)
[12]
  GI50: 15.2 µM (inactive)
[13]
  GI50: 17.7 µM (inactive)
[14]
  GI50: 22.3 µM (inactive)
[15]
  GI50: 17.2 µM (inactive)
[16]
  GI50: 19.2 µM (inactive)
[17]
  GI50: 17.9 µM (inactive)
[18]
  GI50: 17 µM (inactive)
[19]
  GI50: 17.8 µM (inactive)
[20]
  GI50: 17.4 µM (inactive)
[21]
  GI50: 21.2 µM (inactive)
[22]
  GI50: 17.5 µM (inactive)
[23]
  GI50: 20.9 µM
[24]
  GI50: 18.7 µM (inactive)
[25]
  GI50: 24.5 µM (inactive)
[26]
  GI50: 18.7 µM (inactive)
[27]
  GI50: 19.7 µM (inactive)
[28]
  GI50: 29.6 µM (inactive)
[29]
  GI50: 19.5 µM (inactive)
[30]
  GI50: 17.2 µM (inactive)
[31]
  GI50: 0.608 µM (active)
[32]
  GI50: 22 µM (inactive)
[33]
  GI50: 18.3 µM (inactive)
[34]
  GI50: 17.8 µM (inactive)
[35]
  GI50: 16.7 µM (inactive)
[36]
  GI50: 22.8 µM (inactive)
[37]
  GI50: 26.5 µM (inactive)
[38]
  GI50: 14.6 µM (inactive)
[39]
  GI50: 22.9 µM (inactive)
[40]
  GI50: 17.9 µM (inactive)
[41]
  GI50: 38.5 µM (inactive)
[42]
  GI50: 17.1 µM (inactive)
[43]
  GI50: 16.5 µM (inactive)
[44]
  GI50: 16.8 µM (inactive)
[45]
  GI50: 44.7 µM (inactive)
[46]
  GI50: 16.9 µM (inactive)
[47]
  GI50: 19.7 µM (inactive)
[48]
  GI50: 19.5 µM (inactive)
[49]
  GI50: 18.7 µM (inactive)
[50]
  GI50: 16.3 µM (inactive)
[51]
  GI50: 11.7 µM (inactive)
[52]
  GI50: 20.2 µM (inactive)
[53]
  GI50: 18.7 µM (inactive)

## CC(=O)OCC1OC(n2c(-c3ccccc3)cc(-c3ccco3)c(C#N)c2=O)C(OC(C)=O)C(OC(C)=O)C1OC(C)=O (configuration not stated)
[2]
  GI50: 8.38 µM (inactive)
[3]
  GI50: 33.3 µM (inactive) and > 31.6 µM (inactive)
[5]
  GI50: > 100 µM (inactive)
[6]
  GI50: 52.5 µM (inactive)
[7]
  GI50: 3.84 µM (inactive)
[54]
  GI50: > 100 µM (inactive) and 68.1 µM (inactive)
[9]
  GI50: 29.5 µM (inactive) and 20.7 µM (inactive)
[11]
  GI50: > 56.6 µM (inactive) and 74.3 µM (inactive)
[12]
  GI50: 7.46 µM (inactive) and 5.86 µM (inactive)
[17]
  GI50: > 89.1 µM (inactive) and 75.7 µM (inactive)
[19]
  GI50: 22.3 µM (inactive) and 39.3 µM (inactive)
[21]
  GI50: 57.4 µM (inactive)
[22]
  GI50: 28.8 µM (inactive) and 30.5 µM (inactive)
[27]
  GI50: > 100 µM (inactive)
[28]
  GI50: > 100 µM (inactive)
[31]
  GI50: > 100 µM (inactive)
[33]
  GI50: 16.2 µM (inactive)
[34]
  GI50: 39.9 µM (inactive) and 57.5 µM (inactive)
[35]
  GI50: 76.7 µM (inactive) and 49.7 µM (inactive)
[38]
  GI50: > 100 µM (inactive) and 52.4 µM (inactive)
[39]
  GI50: > 22.8 µM (inactive) and 14.8 µM (inactive)
[40]
  GI50: > 100 µM (inactive) and 98.6 µM (inactive)
[41]
  GI50: > 31.6 µM (inactive) and 27.2 µM (inactive)
[42]
  GI50: > 31.6 µM (inactive) and 36.8 µM (inactive)
[43]
  GI50: 25.8 µM (inactive) and 36.3 µM (inactive)
[44]
  GI50: 12.7 µM (inactive) and > 10 µM (inactive)
[55]
  GI50: 45.7 µM (inactive) and 25.9 µM (inactive)
[48]
  GI50: > 31.6 µM (inactive) and 49.3 µM (inactive)
[49]
  GI50: 14.6 µM (inactive) and 28.1 µM (inactive)
[50]
  GI50: > 32.1 µM (inactive) and 19.3 µM (inactive)
[51]
  GI50: 54.6 µM (inactive) and 30.9 µM (inactive)

## O=C(CSc1nnc(-c2ccc(/N=C\c3ccc(Cl)cc3)cc2)o1)Nc1cccc([N+](=O)[O-])c1
[1]
  GI50: > 100 µM (inactive)
[2]
  GI50: > 100 µM (inactive)
[4]
  GI50: > 100 µM (inactive)
[5]
  GI50: > 100 µM (inactive)
[7]
  GI50: > 100 µM (inactive)
[8]
  GI50: > 100 µM (inactive)
[9]
  GI50: 27.5 µM (inactive)
[10]
  GI50: > 100 µM (inactive)
[11]
  GI50: > 100 µM (inactive)
[12]
  GI50: > 100 µM (inactive)
[13]
  GI50: > 100 µM (inactive)
[14]
  GI50: > 100 µM (inactive)
[15]
  GI50: > 100 µM (inactive)
[16]
  GI50: > 100 µM (inactive)
[17]
  GI50: > 100 µM (inactive)
[18]
  GI50: > 100 µM (inactive)
[19]
  GI50: > 100 µM (inactive)
[20]
  GI50: > 100 µM (inactive)
[21]
  GI50: > 100 µM (inactive)
[22]
  GI50: > 100 µM (inactive)
[23]
  GI50: > 100 µM
[24]
  GI50: > 100 µM (inactive)
[25]
  GI50: > 100 µM (inactive)
[26]
  GI50: > 100 µM (inactive)
[28]
  GI50: > 100 µM (inactive)
[29]
  GI50: > 100 µM (inactive)
[30]
  GI50: > 100 µM (inactive)
[31]
  GI50: > 100 µM (inactive)
[32]
  GI50: > 100 µM (inactive)
[34]
  GI50: > 100 µM (inactive)
[35]
  GI50: > 100 µM (inactive)
[36]
  GI50: > 100 µM (inactive)
[37]
  GI50: > 100 µM (inactive)
[39]
  GI50: > 100 µM (inactive)
[40]
  GI50: > 100 µM (inactive)
[41]
  GI50: > 100 µM (inactive)
[43]
  GI50: > 100 µM (inactive)
[44]
  GI50: > 100 µM (inactive)
[45]
  GI50: > 100 µM (inactive)
[55]
  GI50: > 100 µM (inactive)
[47]
  GI50: > 100 µM (inactive)
[48]
  GI50: > 100 µM (inactive)
[56]
  GI50: > 100 µM (inactive)
[49]
  GI50: > 100 µM (inactive)
[50]
  GI50: > 100 µM (inactive)
[51]
  GI50: > 100 µM (inactive)
[52]
  GI50: > 100 µM (inactive)
[53]
  GI50: > 100 µM (inactive)
